{"source": "patent US11911349B2", "about": "“Rapidly improving vascular conditions by administering vitamin K” (NATTOPHARMA AS, priority 2018, dated 2024)", "key": {"[1]": {"system": "kidney transplantation patients", "test": "Clinical study: pulse wave velocity measurement of arterial stiffness in kidney transplantation patients", "type": "in vivo, human", "conditions": "360 ug/day for 8 weeks, kidney transplant patients", "description": "Clinical Study to study the efficacy and safety of Vitamin K2 supplementation on arterial stiffness, the rigidity of arterial walls, in kidney transplantation patients.\nA clinical study was carried out. Arterial wall property measurements were taken at t=0 and t=8 weeks and show a dramatic improvement in arterial wall flexibility. This is good support for concluding that the ingestion of vitamin K, even over this short period, is an effective way of improving endothelial function, reducing arterial stiffness and reducing calcification. […] It is surprising and unexpected because calcification is a slow progressive process and it was thought that reversing this process would also be slow and progressive.\n(§1) Participants were enrolled in a clinical trial in which the effects of vitamin K2 were determined for patients who had recently undergone a kidney transplant. At the beginning of the study, patients were subjected to a non-invasive pulse wave velocity measurement to measure arterial stiffness/flexibility, as well as blood analysis. The study participants were then instructed to receive a specific daily dose of MenaQ7 vitamin K2 menaquinone-7 (360 ug/day) for a total of 8 weeks. At the end of 8 weeks, patients were again examined with a follow-up examination, a non-invasive pulse wave velocity measurement and blood analysis and drug treatment was discontinued."}, "[2]": {"system": "matrix gla protein (MGP)", "test": "Clinical study: blood analysis of matrix gla protein (MGP) carboxylation", "type": "in vivo, human", "conditions": "360 ug/day for 8 weeks, kidney transplant patients", "description": "as §1\nAs part of the blood analysis, carboxylated matrix gla protein (MGP) was measured as a direct measure of vitamin K2 activity. The carboxylated MGP inhibits calcification of blood vessels and Vitamin K2 stimulates carboxylation of MGP."}}, "data": [{"smiles": "CC(C)=CCC/C(C)=C/CC/C(C)=C/CC/C(C)=C/CC/C(C)=C/CC/C(C)=C/CC/C(C)=C/CC1=C(C)C(=O)c2ccccc2C1=O", "note": "[MenaQ7, menaquinone-7]", "values": [{"measurement": "mean reduction in measured pulse-wave velocity", "setting": "[1]", "value": 30, "unit": "%"}, {"measurement": "mean reduction of levels of uncarboxylated MGP", "setting": "[2]", "value": 55, "unit": "%"}]}]}
